From ChEMBL document CHEMBL4834432, “Diverse Prenylated Bibenzyl Enantiomers from the Chinese Liverwort Radula apiculata and Their Cytotoxic Activities” (J Nat Prod, 2021)
Where a name gives a salt, the structure may show the parent alone. Active and inactive are the calls of the source. The rule behind the calls is not given here.

Assays:
MCF7 = assay: Cytotoxicity against human MCF-7 cells assessed as cell viability inhibition for 48 hrs by MTT assay; assay type: functional, cell-based; conditions: MCF7, 48 h
PC-3 [1] = assay: Cytotoxicity against human PC-3 cells assessed as cell viability inhibition for 48 hrs by MTT assay; assay type: functional, cell-based; conditions: PC-3, 48 h
NCI-H1299 = assay: Cytotoxicity against human […] cells assessed as cell viability inhibition for 48 hrs by MTT assay; assay type: functional, cell-based; conditions: NCI-H1299, 48 h
A549 = assay: Cytotoxicity against human A549 cells assessed as cell viability inhibition for 48 hrs by MTT assay; assay type: functional, cell-based; conditions: A549, 48 h
PC-3 [2] = assay: Induction of apoptosis in human PC-3 cells assessed as mitochondrial membrane potential loss at 2 uM incubated for 24 hrs by JC1 staining based flow cytometric analysis (reference value: 100%); assay type: functional, cell-based
PC-3 [3] = assay: Induction of apoptosis in human PC-3 cells assessed as mitochondrial membrane potential loss at 6 uM incubated for 24 hrs by JC1 staining based flow cytometric analysis (reference value: 100%); assay type: functional, cell-based
PC-3 [4] = assay: Induction of apoptosis in human PC-3 cells assessed as nuclear shrinkage at 2 uM incubated for 24 hrs by DAPI staining analysis; assay type: functional, cell-based
PC-3 [5] = assay: Induction of apoptosis in human PC-3 cells assessed as increase in cleaved PARP level at 2 to 6 uM incubated for 24 hrs by Western blot analysis; assay type: functional, cell-based; conditions: dose 2-6 µM
PC-3 [6] = assay: Induction of apoptosis in human PC-3 cells assessed as necrotic cells at 2 uM incubated for 24 hrs by annexin V/propidium iodide based flow cytometry (reference value: 1.93%); assay type: functional
PC-3 [7] = assay: Induction of apoptosis in human PC-3 cells assessed as necrotic cells at 6 uM incubated for 24 hrs by annexin V/propidium iodide based flow cytometry (reference value: 1.93%); assay type: functional
PC-3 [8] = assay: Induction of apoptosis in human PC-3 cells assessed as late apoptotic cells at 6 uM incubated for 24 hrs by annexin V/propidium iodide based flow cytometry (reference value: 3.89%); assay type: functional
PC-3 [9] = assay: Induction of apoptosis in human PC-3 cells assessed as early apoptotic cells at 2 uM incubated for 24 hrs by annexin V/propidium iodide based flow cytometry (reference value: 2.71%); assay type: functional
PC-3 [10] = assay: Induction of apoptosis in human PC-3 cells assessed as increase in Bax protein level incubated for 24 hrs by Western blot analysis; assay type: functional, cell-based; conditions: dose 2-6 µM
PC-3 [11] = assay: Induction of apoptosis in human PC-3 cells assessed as granular apoptotic body formation at 2 uM incubated for 24 hrs by DAPI staining analysis; assay type: functional, cell-based
PC-3 [12] = assay: Induction of apoptosis in human PC-3 cells assessed as early apoptotic cells at 6 uM incubated for 24 hrs by annexin V/propidium iodide based flow cytometry (reference value: 2.71%); assay type: functional
PC-3 [13] = assay: Induction of apoptosis in human PC-3 cells assessed as early apoptotic cells at 4 uM incubated for 24 hrs by annexin V/propidium iodide based flow cytometry (reference value: 2.71%); assay type: functional
PC-3 [14] = assay: Induction of apoptosis in human PC-3 cells assessed as necrotic cells at 4 uM incubated for 24 hrs by annexin V/propidium iodide based flow cytometry (reference value: 1.93%); assay type: functional
PC-3 [15] = assay: Induction of apoptosis in human PC-3 cells assessed as late apoptotic cells at 2 uM incubated for 24 hrs by annexin V/propidium iodide based flow cytometry (reference value: 3.89%); assay type: functional
PC-3 [16] = assay: Induction of apoptosis in human PC-3 cells assessed as mitochondrial membrane potential loss at 4 uM incubated for 24 hrs by JC1 staining based flow cytometric analysis (reference value: 100%); assay type: functional, cell-based
PC-3 [17] = assay: Induction of apoptosis in human PC-3 cells assessed as late apoptotic cells at 4 uM incubated for 24 hrs by annexin V/propidium iodide based flow cytometry (reference value: 3.89%); assay type: functional
PC-3 [18] = assay: Induction of apoptosis in human PC-3 cells assessed as increase in cleaved caspase-9 level at 2 to 6 uM incubated for 24 hrs by Western blot analysis; assay type: functional, cell-based; conditions: dose 2-6 µM

| SMILES | IC50 (MCF7) | IC50 (PC-3 [1]) | IC50 (NCI-H1299) | IC50 (A549) | other results |
| --- | --- | --- | --- | --- | --- |
| CC12CC(c3c(CCc4ccccc4)cc(O)cc3O1)C1C(C2)c2c(CCc3ccccc3)cc(O)cc2OC1(C)C (racemic) | 4.6 µM | 5.4 µM | 7.2 µM | 5.8 µM | – |
| CC1(C)Oc2cc(O)cc(CCc3ccccc3)c2C2=C1O[C@H]1c3c(CCc4ccccc4)cc(O)cc3OC(C)(C)[C@@H]21 | > 10 µM | > 10 µM | > 10 µM | > 10 µM | – |
| CC1(C)Oc2cc(O)cc(CCc3ccccc3)c2C2OC3c4c(CCc5ccccc5)cc(O)cc4OC(C)(C)C3C21 (racemic) | 5.8 µM | 3.5 µM | 6.7 µM | 3.1 µM | – |
| CC1(C)C=Cc2c(CCc3ccccc3)cc(O)c(C3CC(C)(C)Oc4cc(O)cc(CCc5ccccc5)c43)c2O1 (racemic) | 5.7 µM | 8.2 µM | 8.2 µM | 6.5 µM | – |
| CC(C)=CCc1c(O)cc2c(c1CCc1ccccc1)C1(C(=O)O2)c2c(CCc3ccccc3)cc(O)cc2OC1(C)C (racemic) | 3.6 µM | 1.5 µM | 6.9 µM | 2.8 µM | – |
| CC1(C)Oc2cc(O)cc(CCc3ccccc3)c2C(C2=Cc3c(CCc4ccccc4)cc(O)cc3OC2(C)C)C1=O (racemic) | 4.9 µM | 4.1 µM | 6.4 µM | 4.5 µM | – |
| CC1=CC2c3c(CCc4ccccc4)cc(O)cc3OC(c3c(O)cc(O)cc3CCc3ccccc3)C2C(C)(C)C1 (racemic) | 9.8 µM | 8.2 µM | – | – | – |
| CC1(C)C=Cc2c(cc3c(c2CCc2ccccc2)C2(C(=O)O3)c3c(CCc4ccccc4)cc(O)cc3OC2(C)C)O1 (racemic) | 5.4 µM | 1.4 µM | 5.8 µM | 2.6 µM | – |
| COc1cccc2c1C(=O)c1c(O)c3c(c(O)c1C2=O)C[C@@](O)(C(=O)CO)C[C@@H]3O[C@H]1C[C@H](N)[C@H](O)[C@H](C)O1 [DOXORUBICIN HYDROCHLORIDE] | – | 0.4 µM | 4.7 µM | 1.2 µM | – |
| CC1(C)Oc2cc(O)cc(CCc3ccccc3)c2C2=C1OC1c3c(CCc4ccccc4)cc(O)cc3OC(C)(C)C21 (racemic) | 5 µM | 3.4 µM | 6.6 µM | 3.7 µM | Activity (PC-3 [2]): Active; Activity (PC-3 [3]): Active; Activity (PC-3 [4]): Active; Activity (PC-3 [5]): Active; Activity (PC-3 [6]): 4.12%; Activity (PC-3 [7]): 18.81%; Activity (PC-3 [8]): 60.74%; Activity (PC-3 [9]): 2.65%; Activity (PC-3 [10]): Active; Activity (PC-3 [11]): Active; Activity (PC-3 [12]): 1.82%; Activity (PC-3 [13]): 1.4%; Activity (PC-3 [14]): 2.55%; Activity (PC-3 [15]): 5.68%; Activity (PC-3 [16]): Active; Activity (PC-3 [17]): 7.81%; Activity (PC-3 [18]): Active |
| CC1(C)Oc2cc(O)cc(CCc3ccccc3)c2C2=C1O[C@@H]1c3c(CCc4ccccc4)cc(O)cc3OC(C)(C)[C@H]21 | 4.5 µM | 3.2 µM | 6.2 µM | 3.6 µM | – |
